According to PubChem BioAssay AID2060504 (Molecular Pharmacology Branch, DTP, NCI, 2025):

Tested on: 636577-100-R-J1-PDC complex spheroid viability
Assay: Anticancer human tumor 636577-100-R-J1-PDC patient-derived endometrial adenocarcinoma cell line growth inhibition [GQUAD]
Conditions: for IC50: curve of first compound; for viability, T/C: stronger effect = lower value; active = viability on the fitted dose curve at most 10% of control; inactive = the rest
Excerpt: DNA G-quadruplex Stabilizer Agents in Combinations in Complex Spheroids
A high-throughput screen of multi-cell type tumor spheroids was designed to identify active combinations of DNA G-quadruplex stabilizer agents and targeted small molecules. Complex spheroids include a stromal component modeled by human endothelial cells (HUVEC) and fibroblasts modeled by human mesenchymal stem cells (MSCs). The concentration ranges selected for each drug and investigational agent were based upon clinically achievable concentrations if the clinical Cmax of the agent was known.
Compounds. The drugs and investigational agents: pidnarulex (CX-5461; NSC782164), APTO-253 (NSC789042), BRACO-19 (NSC847499), peposertib (NSC802822), ceralasertib (NSC780249), elimusertib (NSC800525), camonsertib (NSC841442), AZD-1390 (NSC803789), olaparib (NSC753686), talazoparib (NSC767125), ART-558 (NSC835418), sotorasib (NSC818433), MRTX-1133 (NSC836407), SN-38 (NSC673596), topotecan (NSC609699), etoposide (NSC141540), doxorubicin (NSC123127), gemcitabine (NSC613327), 5-fluorouracil (NSC19893), paclitaxel (NSC125973), vemurafenib (NSC761431), panobinostat (NSC761190), R-306465 (JNJ-16241199; NSC773264), adavosertib (NSC754352), TP-3654 (NSC805149), carboplatin (NSC241240), KSQ-4279 (NSC840948), and staurosporine (NSC755774) were obtained from the National Cancer Institute (NCI) Developmental Therapeutics Program Chemical Repository (34). The FDA-approved anticancer drug set is available from the NCI Developmental Therapeutics Program. […] The stock solutions were prepared in dimethyl sulfoxide (DMSO, Sigma-Aldrich, St. Louis, MO, cat. D2650) at 800-fold the tested concentration and stored at -70 degrees C prior to their use. All drugs and investigational agents were tested over a range starting from a high concentration at or near the clinical Cmax and decreasing in half-log increments. If the clinical Cmax for an agent had not been determined, the highest concentration tested was 10 microM.
2.3 Cell Culture. All cells were maintained in an incubator at 37 degrees C and 5% CO2 with 95% humidity. The PDC lines were cultured according to standard operating procedures established by the NCI PDMR. All PDCs were thawed and cultured in Matrigel-coated flasks prepared with a working solution of 1X Ham's F-12 nutrient mix, without supplementation (Invitrogen, cat. 11765054), 100 U/mL penicillin-streptomycin (Invitrogen, cat. 15140122), and 2.5% Matrigel (Corning Inc., cat. 354248) for the first three passages. The 857933-349-R-J2-PDC line was cultured in 6C/Colon 1B media, which includes advanced DMEM/F-12 (Thermo Fisher Scientific, cat. 12634028), 10 mM HEPES (Thermo Fisher Scientific, cat. 15630080), 1X GlutaMAX supplement (Thermo Fisher Scientific, cat. 35050061), 0.1 mg/mL primocin (InvivoGen, cat. ant-pm-2), 10% defined fetal bovine serum, heat inactivated (HyClone Laboratories Inc., cat. SH30070.03HI), 50% L-WRN conditioned media (ATCC, cat. CRL-3276), 1.25 mM N-Acetyl-L-cysteine (Sigma-Aldrich, cat. A9165), 10 mM nicotinamide (Sigma-Aldrich, cat. N0636), 1X B-27 supplement (Thermo Fisher Scientific, cat. 17504044), 1X N-2 supplement (Thermo Fisher Scientific, cat. 17502048), 10 microM Y-27632 dihydrochloride (Tocris Bioscience, cat. 1254), and 50 ng/mL human EGF recombinant protein (Thermo Fisher Scientific, cat. PHG0311). The 485176-168-R4-J1-PDC line was cultured in Panc media, which includes all 6C/Colon 1B media components plus 100 ng/mL human FGF-10 (Thermo Fisher Scientific, cat. 100-26), 500 nM SB-431542 (Selleckchem, cat. S1067), and gastrin (Tocris, cat. 3006).
[…]

[1] = second compound 0.0316 µM, first compound 0.0316 µM
[2] = second compound 0.0316 µM, first compound 0.316 µM
[3] = second compound 0.1 µM, first compound 0.0316 µM
[4] = second compound 0.1 µM, first compound 0.316 µM
[5] = second compound 0.316 µM, first compound 0.0316 µM
[6] = second compound 0.316 µM, first compound 0.316 µM
[7] = second compound 1 µM, first compound 0.0316 µM
[8] = second compound 1 µM, first compound 0.316 µM
[9] = second compound 3.16 µM, first compound 0.0316 µM
[10] = second compound 3.16 µM, first compound 0.316 µM
[11] = second compound 10 µM, first compound 0.0316 µM
[12] = second compound 10 µM, first compound 0.316 µM
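Also: viability read after seven days of drug exposure.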
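For viability, T/C in this document: luminescence signal used as a proxy for viable cells; 100% = DMSO vehicle control wells.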

Cc1[nH]c2ccccc2c1CCNCc1ccc(/C=C/C(=O)NO)cc1 + CN(C)c1ccc(Nc2c3ccc(NC(=O)CCN4CCCC4)cc3nc3cc(NC(=O)CCN4CCCC4)ccc23)cc1
4.84 nM: IC50 (second compound 0.316 µM)
3.84 nM: IC50 (second compound 0.0316 µM)
inactive: viability, T/C (second compound 0.0316 µM, first compound 0.000999 µM) 84% | viability, T/C (second compound 0.0316 µM, first compound 0.00316 µM) 49.5% | viability, T/C (second compound 0.0316 µM, first compound 0.00999 µM) 40.6% | viability, T/C [1] 15.7% | viability, T/C (second compound 0.0316 µM, first compound 0.0999 µM) 8.74% | viability, T/C (second compound 0.1 µM, first compound 0.000999 µM) 80.7% | viability, T/C (second compound 0.1 µM, first compound 0.00316 µM) 56.5% | viability, T/C (second compound 0.1 µM, first compound 0.00999 µM) 36.1% | viability, T/C [3] 14.2% | viability, T/C (second compound 0.316 µM, first compound 0.000999 µM) 62.3% | viability, T/C (second compound 0.316 µM, first compound 0.00316 µM) 62.5% | viability, T/C (second compound 0.316 µM, first compound 0.00999 µM) 30.4% | viability, T/C [5] 14% | viability, T/C (second compound 0.316 µM, first compound 0.0999 µM) 8.97% | viability, T/C [6] 9.2% | viability, T/C (second compound 1 µM, first compound 0.000999 µM) 65.4% | viability, T/C (second compound 1 µM, first compound 0.00316 µM) 48.6% | viability, T/C (second compound 1 µM, first compound 0.00999 µM) 31.5% | viability, T/C [7] 13.9% | viability, T/C (second compound 1 µM, first compound 0.0999 µM) 9.95% | viability, T/C (second compound 3.16 µM, first compound 0.000999 µM) 37.1% | viability, T/C (second compound 3.16 µM, first compound 0.00316 µM) 29.2% | viability, T/C (second compound 3.16 µM, first compound 0.00999 µM) 20.2% | viability, T/C [9] 15.6% | viability, T/C (second compound 3.16 µM, first compound 0.0999 µM) 10.3% | viability, T/C [10] 10.9%
4.62 nM: IC50 (second compound 0.1 µM)
active: viability, T/C [2] 12.3% | viability, T/C (second compound 0.1 µM, first compound 0.0999 µM) 8.43% | viability, T/C [4] 8.87% | viability, T/C [8] 10.1% | viability, T/C (second compound 10 µM, first compound 0.000999 µM) 6.06% | viability, T/C (second compound 10 µM, first compound 0.00316 µM) 7.54% | viability, T/C (second compound 10 µM, first compound 0.00999 µM) 7.16% | viability, T/C [11] 6.21% | viability, T/C (second compound 10 µM, first compound 0.0999 µM) 6.38% | viability, T/C [12] 3.97%
3.15 nM: IC50 (second compound 1 µM)
< 0.999 nM: IC50 (second compound 3.16 µM) | IC50 (second compound 10 µM)

CC(=O)O[C@H]1C(=O)[C@@]2(C)[C@H]([C@H](OC(=O)c3ccccc3)[C@]3(O)C[C@H](OC(=O)[C@H](O)[C@@H](NC(=O)c4ccccc4)c4ccccc4)C(C)=C1C3(C)C)[C@]1(OC(C)=O)CO[C@@H]1C[C@@H]2O + Cc1[nH]c2ccc(F)cc2c1-c1nc2c3cccnc3c3ncccc3c2[nH]1
inactive: viability, T/C [1] 16.9% | viability, T/C (second compound 0.0316 µM, first compound 0.1 µM) 14.4% | viability, T/C [2] 13.5% | viability, T/C (second compound 0.0316 µM, first compound 1 µM) 12% | viability, T/C (second compound 0.0316 µM, first compound 3.16 µM) 11.2% | viability, T/C (second compound 0.0316 µM, first compound 10 µM) 11.2% | viability, T/C [3] 15.5% | viability, T/C (second compound 0.1 µM, first compound 0.1 µM) 13.5% | viability, T/C [4] 10.8% | viability, T/C (second compound 0.1 µM, first compound 1 µM) 9.49% | viability, T/C (second compound 0.1 µM, first compound 3.16 µM) 11.1% | viability, T/C [5] 17.3% | viability, T/C (second compound 0.316 µM, first compound 0.1 µM) 13.2% | viability, T/C [6] 11.6% | viability, T/C (second compound 0.316 µM, first compound 1 µM) 10.4% | viability, T/C (second compound 0.316 µM, first compound 3.16 µM) 9.79% | viability, T/C (second compound 0.316 µM, first compound 10 µM) 11.4% | viability, T/C [7] 16.5% | viability, T/C (second compound 1 µM, first compound 0.1 µM) 12% | viability, T/C [8] 12% | viability, T/C (second compound 1 µM, first compound 1 µM) 12.1% | viability, T/C (second compound 1 µM, first compound 3.16 µM) 10.9% | viability, T/C (second compound 1 µM, first compound 10 µM) 11% | viability, T/C [9] 15.3% | viability, T/C (second compound 3.16 µM, first compound 0.1 µM) 11.7% | viability, T/C [10] 13.8% | viability, T/C (second compound 3.16 µM, first compound 1 µM) 12.5% | viability, T/C (second compound 3.16 µM, first compound 3.16 µM) 10.7% | viability, T/C [11] 15.6% | viability, T/C (second compound 10 µM, first compound 0.1 µM) 13.5% | viability, T/C [12] 10.5% | viability, T/C (second compound 10 µM, first compound 1 µM) 11.4% | viability, T/C (second compound 10 µM, first compound 3.16 µM) 12.7% | viability, T/C (second compound 10 µM, first compound 10 µM) 12.6%
< 31.6 nM: IC50 (second compound 0.0316 µM) | IC50 (second compound 0.1 µM) | IC50 (second compound 0.316 µM) | IC50 (second compound 1 µM) | IC50 (second compound 3.16 µM) | IC50 (second compound 10 µM)
active: viability, T/C (second compound 0.1 µM, first compound 10 µM) 9.8% | viability, T/C (second compound 3.16 µM, first compound 10 µM) 8.71%
